Experimental data reported in PubChem BioAssay (NCI).
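Five concentrations, 48 hours, 96-well plates. GI50 is the concentration that inhibits growth by half. TGI is the concentration that stops growth completely.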

Columns and labels:
Test in all cases: NCI-60 cell line screen, 48 h
HOP-62 NSCLC = tested on: HOP-62 NSCLC
SF-539 CNS = tested on: SF-539 CNS
EKVX NSCLC = tested on: EKVX NSCLC
KM12 colon = tested on: KM12 colon
SK-MEL-28 melanoma = tested on: SK-MEL-28 melanoma
HT29 colon = tested on: HT29 colon
CCRF-CEM leukemia = tested on: CCRF-CEM leukemia
OVCAR-3 ovarian = tested on: OVCAR-3 ovarian
A549 NSCLC = tested on: A549 NSCLC
NCI-H460 lung = tested on: NCI-H460 lung

CCN(CC)c1ccc(N=Nc2ccc(-c3nc4cccnc4o3)cc2)cc1
TGI (HOP-62 NSCLC): > 100 µM
TGI (SF-539 CNS): > 100 µM
TGI (EKVX NSCLC): > 100 µM
TGI (KM12 colon): > 100 µM
TGI (SK-MEL-28 melanoma): > 100 µM
TGI (HT29 colon): > 100 µM
TGI (CCRF-CEM leukemia): > 100 µM
TGI (OVCAR-3 ovarian): > 100 µM
TGI (A549 NSCLC): > 100 µM

N#CC(C#N)=C(N)/C(C#N)=C\c1ccnc2ccccc12
TGI (HOP-62 NSCLC): 56.5 µM
TGI (SF-539 CNS): 31.1 µM
TGI (KM12 colon): > 100 µM
TGI (SK-MEL-28 melanoma): 40.2 µM
TGI (HT29 colon): 57.7 µM
TGI (CCRF-CEM leukemia): 10.3 µM
TGI (OVCAR-3 ovarian): > 100 µM
TGI (A549 NSCLC): > 100 µM
TGI (NCI-H460 lung): > 100 µM

C=CCn1c(C)nc2cc(Nc3nc(Nc4ccc5nc(C)n(CC=C)c5c4)c4ccccc4n3)ccc21
GI50 (SF-539 CNS): 1.03 µM
TGI (SF-539 CNS): 2.22 µM
GI50 (KM12 colon): 0.254 µM
TGI (KM12 colon): 0.659 µM
GI50 (SK-MEL-28 melanoma): 1.41 µM
TGI (SK-MEL-28 melanoma): 3.16 µM
GI50 (HT29 colon): 0.19 µM
TGI (HT29 colon): 0.348 µM
GI50 (CCRF-CEM leukemia): 0.279 µM
TGI (CCRF-CEM leukemia): 0.76 µM
GI50 (OVCAR-3 ovarian): 0.183 µM
TGI (OVCAR-3 ovarian): 0.342 µM

COP1(=O)CC2C(Cl)(Cl)C2(C)C1 (stereo not drawn)
TGI (HOP-62 NSCLC): > 100 µM
TGI (SF-539 CNS): > 100 µM
TGI (KM12 colon): > 100 µM
TGI (SK-MEL-28 melanoma): > 100 µM
TGI (HT29 colon): > 100 µM
TGI (CCRF-CEM leukemia): > 100 µM
TGI (OVCAR-3 ovarian): > 100 µM
TGI (A549 NSCLC): > 100 µM
TGI (NCI-H460 lung): > 100 µM

CC(=O)NC1=N/C(=C/c2cc([N+](=O)[O-])ccc2O)CN1C
TGI (HOP-62 NSCLC): > 100 µM
TGI (SF-539 CNS): > 100 µM
TGI (EKVX NSCLC): > 100 µM
TGI (KM12 colon): > 100 µM
TGI (SK-MEL-28 melanoma): > 100 µM
TGI (HT29 colon): > 100 µM
TGI (OVCAR-3 ovarian): > 100 µM
TGI (A549 NSCLC): > 100 µM
TGI (NCI-H460 lung): > 100 µM

Cc1ccc(C(=O)c2oc3ccc4c(C)cc(=O)oc4c3c2C)cc1
GI50 (HOP-62 NSCLC): 12.2 µM
TGI (HOP-62 NSCLC): > 100 µM
GI50 (SF-539 CNS): 1.41 µM
TGI (SF-539 CNS): 20.1 µM
GI50 (KM12 colon): 63.3 µM
TGI (KM12 colon): > 100 µM
GI50 (SK-MEL-28 melanoma): 6.37 µM
TGI (SK-MEL-28 melanoma): > 100 µM
GI50 (HT29 colon): 8.9 µM
TGI (HT29 colon): > 100 µM
GI50 (CCRF-CEM leukemia): > 100 µM
TGI (CCRF-CEM leukemia): > 100 µM
GI50 (OVCAR-3 ovarian): 14.7 µM
TGI (OVCAR-3 ovarian): 54.8 µM
GI50 (A549 NSCLC): 4.97 µM
TGI (A549 NSCLC): > 100 µM
GI50 (NCI-H460 lung): 0.896 µM
TGI (NCI-H460 lung): 18.2 µM

CC1CC(c2ccccc2)=Nc2ccccc2S1(=O)=O (stereo not drawn)
TGI (HOP-62 NSCLC): 39.8 µM
TGI (SF-539 CNS): 34.1 µM
TGI (EKVX NSCLC): 39.6 µM
TGI (KM12 colon): 31.3 µM
TGI (SK-MEL-28 melanoma): 29.8 µM
TGI (CCRF-CEM leukemia): 43.4 µM
TGI (OVCAR-3 ovarian): 32.8 µM
TGI (A549 NSCLC): 55.6 µM
TGI (NCI-H460 lung): 34.9 µM

COc1ccc2c(c1)C(=O)CC(N)C2 (stereo not drawn)
TGI (HOP-62 NSCLC): > 100 µM
TGI (EKVX NSCLC): > 100 µM
TGI (KM12 colon): > 100 µM
TGI (SK-MEL-28 melanoma): > 100 µM
TGI (HT29 colon): > 100 µM
TGI (CCRF-CEM leukemia): > 100 µM
TGI (OVCAR-3 ovarian): > 100 µM
TGI (A549 NSCLC): > 100 µM
TGI (NCI-H460 lung): > 100 µM

CCN(CC)CCNc1c(OC)cc(C)c2sc3ccccc3c(=O)c12
TGI (HOP-62 NSCLC): 25 µM
TGI (SF-539 CNS): 23 µM
TGI (EKVX NSCLC): 32.5 µM
TGI (KM12 colon): 17.2 µM
TGI (SK-MEL-28 melanoma): 5.1 µM
TGI (HT29 colon): 6.42 µM
TGI (OVCAR-3 ovarian): 26.2 µM
TGI (A549 NSCLC): 18 µM
TGI (NCI-H460 lung): 18.9 µM

COc1cc(OC)c(/C=C/c2ccc3ccccc3[n+]2C)c(OC)c1
GI50 (HOP-62 NSCLC): 1.13 µM
TGI (HOP-62 NSCLC): 12.1 µM
GI50 (SF-539 CNS): 0.422 µM
TGI (SF-539 CNS): 5.78 µM
GI50 (KM12 colon): 0.322 µM
TGI (KM12 colon): 1.99 µM
GI50 (SK-MEL-28 melanoma): 0.891 µM
TGI (SK-MEL-28 melanoma): 3.62 µM
GI50 (HT29 colon): 0.28 µM
TGI (HT29 colon): 1.57 µM
GI50 (CCRF-CEM leukemia): 0.697 µM
TGI (CCRF-CEM leukemia): 6.49 µM
GI50 (OVCAR-3 ovarian): 0.56 µM
TGI (OVCAR-3 ovarian): 3.9 µM
GI50 (A549 NSCLC): 0.748 µM
TGI (A549 NSCLC): 13.9 µM
GI50 (NCI-H460 lung): 0.577 µM
TGI (NCI-H460 lung): 2.72 µM

CN(C)c1ccc(/C=C2\Oc3cc(O)ccc3C2=O)cc1
TGI (HOP-62 NSCLC): > 100 µM
TGI (SF-539 CNS): > 100 µM
TGI (EKVX NSCLC): > 100 µM
TGI (KM12 colon): > 100 µM
TGI (SK-MEL-28 melanoma): > 100 µM
TGI (CCRF-CEM leukemia): > 100 µM
TGI (OVCAR-3 ovarian): > 100 µM
TGI (A549 NSCLC): > 100 µM
TGI (NCI-H460 lung): > 100 µM

Oc1ccc(Br)cc1Sc1cc(Br)ccc1O
GI50 (HOP-62 NSCLC): 13.6 µM
TGI (HOP-62 NSCLC): 30.2 µM
GI50 (SF-539 CNS): 4.66 µM
TGI (SF-539 CNS): 18.7 µM
GI50 (KM12 colon): 17 µM
TGI (KM12 colon): 33.3 µM
GI50 (SK-MEL-28 melanoma): 4.78 µM
TGI (SK-MEL-28 melanoma): 16.6 µM
GI50 (HT29 colon): 19 µM
TGI (HT29 colon): 34.1 µM
GI50 (CCRF-CEM leukemia): 5.25 µM
TGI (CCRF-CEM leukemia): 24.8 µM
GI50 (OVCAR-3 ovarian): 4.98 µM
TGI (OVCAR-3 ovarian): 18 µM
GI50 (A549 NSCLC): 5.09 µM
TGI (A549 NSCLC): 22 µM
GI50 (NCI-H460 lung): 5.1 µM
TGI (NCI-H460 lung): 20 µM

CCOC(=O)CCC(=O)C1c2cccc(O)c2C(=O)c2c(O)cccc21
TGI (HOP-62 NSCLC): 3.8 µM
TGI (SF-539 CNS): 1.63 µM
TGI (KM12 colon): 2.2 µM
TGI (SK-MEL-28 melanoma): 2.68 µM
TGI (HT29 colon): 6.24 µM
TGI (CCRF-CEM leukemia): 3.68 µM
TGI (OVCAR-3 ovarian): 2.26 µM
TGI (A549 NSCLC): 2.18 µM
TGI (NCI-H460 lung): 1.4 µM

O=C(C(O)c1cn(Cc2ccccc2)c2ccccc12)N1CCCCC1 (stereo not drawn)
TGI (HOP-62 NSCLC): > 100 µM
TGI (SF-539 CNS): > 100 µM
TGI (EKVX NSCLC): > 100 µM
TGI (KM12 colon): > 100 µM
TGI (SK-MEL-28 melanoma): > 10 µM
TGI (HT29 colon): > 100 µM
TGI (CCRF-CEM leukemia): > 100 µM
TGI (OVCAR-3 ovarian): > 100 µM
TGI (A549 NSCLC): > 100 µM

N#CCCc1nc2ccc(Br)cc2c(=O)n1CCO
TGI (HOP-62 NSCLC): > 100 µM
TGI (SF-539 CNS): > 100 µM
TGI (EKVX NSCLC): > 100 µM
TGI (KM12 colon): > 100 µM
TGI (SK-MEL-28 melanoma): > 100 µM
TGI (CCRF-CEM leukemia): > 100 µM
TGI (OVCAR-3 ovarian): > 100 µM
TGI (A549 NSCLC): > 100 µM

CN(C)CCNc1nc2ccccc2c2c1c1c(n2Cc2ccccc2)-c2ccccc2C1=O
GI50 (HOP-62 NSCLC): 18.1 µM
TGI (HOP-62 NSCLC): 37.2 µM
GI50 (SF-539 CNS): 14 µM
TGI (SF-539 CNS): 29.4 µM
GI50 (EKVX NSCLC): 16.3 µM
TGI (EKVX NSCLC): 32.3 µM
GI50 (SK-MEL-28 melanoma): 16.8 µM
TGI (SK-MEL-28 melanoma): 32.3 µM
GI50 (HT29 colon): 6.92 µM
TGI (HT29 colon): 22.2 µM
GI50 (CCRF-CEM leukemia): 7.86 µM
TGI (CCRF-CEM leukemia): 24.1 µM
GI50 (OVCAR-3 ovarian): 17.2 µM
TGI (OVCAR-3 ovarian): 34.8 µM
GI50 (A549 NSCLC): 14.6 µM
TGI (A549 NSCLC): 46.6 µM
GI50 (NCI-H460 lung): 10.5 µM
TGI (NCI-H460 lung): 26.7 µM

CCCCCCC/C=C/[C@H]1O[C@]23C(=O)C[C@@]4(C[C@@H](OC5OC(CO)C(O)C(O)C5O)C[C@@H]4[C@H]2C=C1C)OC3=O (stereo partly drawn)
GI50 (SF-539 CNS): 5.1 µM
TGI (SF-539 CNS): 9.99 µM
GI50 (EKVX NSCLC): 6.72 µM
TGI (EKVX NSCLC): 17.8 µM
GI50 (KM12 colon): 4.66 µM
TGI (KM12 colon): 11.6 µM
GI50 (SK-MEL-28 melanoma): 5.05 µM
TGI (SK-MEL-28 melanoma): 10.3 µM
GI50 (HT29 colon): 4.18 µM
TGI (HT29 colon): 11.9 µM
GI50 (CCRF-CEM leukemia): 1.19 µM
TGI (CCRF-CEM leukemia): > 33.3 µM
GI50 (OVCAR-3 ovarian): 2.28 µM
TGI (OVCAR-3 ovarian): 6.71 µM
GI50 (A549 NSCLC): 8.48 µM
TGI (A549 NSCLC): > 33.3 µM
GI50 (NCI-H460 lung): 6.63 µM
TGI (NCI-H460 lung): 16.8 µM

CC[N+](CCCCCCCCCC[N+](CC)(c1ccccn1)c1ccccn1)(c1ccccn1)c1ccccn1
GI50 (HOP-62 NSCLC): 2.15 µM
TGI (HOP-62 NSCLC): 9.15 µM
GI50 (SF-539 CNS): 1.72 µM
TGI (SF-539 CNS): 14.1 µM
GI50 (KM12 colon): 0.739 µM
TGI (KM12 colon): 8 µM
GI50 (SK-MEL-28 melanoma): 2.48 µM
TGI (SK-MEL-28 melanoma): 15.2 µM
GI50 (HT29 colon): 0.764 µM
TGI (HT29 colon): 12.1 µM
GI50 (CCRF-CEM leukemia): 1.05 µM
TGI (CCRF-CEM leukemia): 8.78 µM
GI50 (OVCAR-3 ovarian): 1.09 µM
TGI (OVCAR-3 ovarian): 10.1 µM
GI50 (A549 NSCLC): 0.456 µM
TGI (A549 NSCLC): > 100 µM
GI50 (NCI-H460 lung): 0.625 µM
TGI (NCI-H460 lung): 10.3 µM
